Experimental data reported in publication PMC10893053 (Pharmaceutics, 2024).
Converted amounts (≈) assume the structure as drawn. “And” between values parts separate entries of the source, which are not always exact repeats. Equal entries are not always repeated. Where two headings read alike, the source gives them in different places.

Assays:
[1] = In vitro permeability, Franz diffusion cell, polydimethylsiloxane–polycarbonate membrane; type: in vitro ADME; conditions: 37 °C; for C0free (free CBZ concentration in the donor solution, C0free=C0·ffree): PDS membrane experiment; for Papp at 5 h: pH 6.8, PDS membrane
Description: (§1) The apparent permeability coefficients were measured at 37 °C with the help of a vertical-type Franz diffusion cell (PermeGear, Inc., Hellertown, PA, USA). The experimental setup was the same as it was described in our previous study, where the excess amount of the investigated substance was placed in glass cups with ground-in lids. The required volume of buffer pH 6.8 without and with a predetermined concentration of the excipient (F127 or SBE-β-CD in the present study) was added, and the suspension was mixed overnight and filtered to obtain a clear solution. The concentration of this solution was determined and used for the further calculation of the permeability coefficient. […] The membrane was mounted between the donor and receptor chambers of the Franz cell. The effective surface area of the membrane was 0.785 cm^2. Each experiment lasted 5 h. The donor solution was permanently mixing with a magnetic stirrer at a constant rate. The aliquots of the receptor solution (0.5 mL) were withdrawn every 30 min and promptly replaced with the same volume of the fresh buffer.
(§2) The apparent permeability coefficients were taken as the average values of no less than three replicas. […]
(§3) The authors underlined that when different excipients, such as cyclodextrins or micelle-forming polymers, are used, it is necessary to obtain “true” permeability values by a correction of permeability coefficients for the free drug concentration. In this study, the free drug concentration in the presence of F127 and SBE-β-CD was assessed indirectly through the equilibrium solubility experiments at all the excipient concentrations (Table 2).

[2] = logP, partition of CBZ from water to 1-octanol; type: physicochemical; conditions: 1-octanol/water, pH 7.4; after conversion from the molar units to the mass units
[3] = Equilibrium solubility of CBZ, shake-flask method, HPLC; type: physicochemical; conditions: phosphate buffer, aqueous buffer, thermodynamic from solid; pure buffer pH 6.8; 37.0±0.1 °C
Description: The experimental temperature of 37 °C corresponded to the standard temperature of a healthy human. […] The vials were continuously shaken in an air thermostat to achieve the equilibrium. After this, the suspensions were settled during no less than 6 h to avoid supersaturation [33]. […] The experimental results are presented as an average of at least three replicated experiments.
The samples of the solutions were analyzed via HPLC using the Shimadzu Prominence model LC-20 AD, equipped with a PDA detector and a C-18 column Luna® (150 mm × 4.6 mm i.d., 5 μm particle size, and 100 Å pore size) (Albert-Hahn-Str. 6-10, Duisburg, Germany). The column temperature was 40 °C. Eluent acetonitrile:water at a ratio of 40:60 v/v was used. An isocratic regime at a flow rate of 1 mL·min^−1 was applied. The injection volume was 20 μL.

[4] = Cyclodextrin (SBE-β-CD)/buffer apparent partition coefficient of CBZ; type: physicochemical; conditions: buffer pH 6.8, 37 °C
Description: (§4) Additionally, for the sake of the reliable comparison of the partition within the micellar and cyclodextrin systems, the concentrations of the excipient (F127 or SBE-β-CD) on the X-axis were expressed in kg∙L^−1. From the results of the partition coefficients determinations, the thermodynamics of solubilization by F127 and SBE-β-CD was disclosed by the excess free Gibbs energy ( ΔGS37°C ) evaluation, using the equation:(12) ΔGS37°C=−RT·lnKexcipient/buf
(§5) In the case of cyclodextrins, the nonspecific interaction between the solute and the cavity of cyclodextrin takes place, and the solubilization process may be attributed to the partition of solutes from the aqueous buffer into the cyclodextrin cavity. In this work, the partition from the micellar pseudo phase (F127) to the aqueous buffer pH 6.8, as well as from SBE-β-CD to the buffer was studied using the plots of the linear dependences (Figure S4), plotted according to Equations (10) and (11). The calculations were conducted in two variants.

[5] = CBZ/F127 association constant (Ka) from phase solubility diagram; type: physicochemical; conditions: buffer pH 6.8, 37 °C
From the text: To this end, in order to assess the concentration of F127 in the micellar form, the difference between the total F127 (CF127) concentration and the CMC was used.
The CMC value of F127 (Section 3.1) was used to calculate F127 micellar concentrations as the differences between the total CF127 and the CMC.

[6] = set-up: method as in PMID 21415539; conditions: water to 1-octanol; pH 7.4 of the aqueous phase; cited from earlier work
[7] = In vitro permeability, Franz diffusion cell, regenerated cellulose membrane; type: in vitro ADME; conditions: 37 °C; for C0free (free CBZ concentration in the donor solution, C0free=C0·ffree): RC membrane experiment; for Papp at 5 h: pH 6.8, RC membrane
Description: as §1, §2, §3

[8] = cited from earlier work
[9] = Stability constant of CBZ/SBE-β-CD complex (Kc) from phase solubility diagram; type: physicochemical; conditions: buffer pH 6.8, 37 °C
[10] = set-up: method as in PMID 19403275; conditions: 1.33 mmol·L^−1 (1%) F127 solution; 37 °C; cited from earlier work
[11] = Micelle (F127)/buffer apparent partition coefficient of CBZ; type: physicochemical; conditions: buffer pH 6.8, 37 °C
Description: as §4, §5

[12] = Viscosity of F127 and SBE-β-CD solutions, Vibro Viscometer; type: physicochemical; conditions: 37 °C
Description: The viscosity of F127 and SBE-β-CD solutions at concentrations used for the permeability experiments (1.0 w/v%, 2.0 w/v%, and 3.0 w/v%) was measured with the help of SV series Vibro Viscometer (A&D Company Ltd., Tokyo, Japan) with a high accuracy of 1% (standard deviation).
In turn, with SBE-β-CD in the donor solution, the Pappcalc values are somewhat lower with RC and higher with PDS membranes than the experimental Papp values. These findings allow the proposal of additional mechanisms that influence permeability, going beyond the model approach which primarily relied on solubility for quantitatively predicting permeability. The underestimation of the permeability through the PDS membrane with SBE-β-CD can probably be attributed to the specific interaction of anionic cyclodextrin with PDS, as it was underlined above. In addition, as it was reported in [57], decreased diffusivity can be attributed to the increased viscosity of the donor solution upon the acceleration of the excipient concentration. […] Fischer et al. proposed that just a change in the viscosity of the aqueous donor compartment might be the reason of the decreased permeability of carboxyfluorescein in the non-ionic surfactant poloxamer 188. To support the obtained results, the dynamic viscosity […] of the dissolution medium was measured at the experimental temperature of 37 °C and listed in Table S4. As expected, the viscosity was increased both with F127 and SBE-β-CD in solution.

[13] = F127 1.33 mmol·L^−1, buffer pH 6.8, read-out: Papp (apparent permeability coefficient)
[14] = F127 1.83 mmol·L^−1, buffer pH 6.8, read-out: Papp (apparent permeability coefficient)
[15] = F127 2.30 mmol·L^−1, buffer pH 6.8, read-out: Papp (apparent permeability coefficient)
[16] = SBE-β-CD 6.89 mmol·L^−1, buffer pH 6.8, read-out: Papp (apparent permeability coefficient)
[17] = SBE-β-CD 13.78 mmol·L^−1, buffer pH 6.8, read-out: Papp (apparent permeability coefficient)
[18] = SBE-β-CD 20.67 mmol·L^−1, buffer pH 6.8, read-out: Papp (apparent permeability coefficient)
[19] = pure buffer pH 6.8 (0 mmol·L^−1 excipient), read-out: Pabs (absolute permeability coefficient, Pabs=J/C0free)
[20] = pure buffer pH 6.8 (0 mmol·L^−1 excipient), read-out: Papp (apparent permeability coefficient)
[21] = excipient concentration expressed in kg∙L^−1
[22] = excipient concentration expressed in molarity
[23] = expressed per mass of excipient

## NC(=O)N1c2ccccc2C=Cc2ccccc21 [CBZ, carbamazepine]
[1]; F127 1.33 mmol·L^−1
  C0free (free CBZ concentration in the donor solution, C0free=C0·ffree): 464 µM
[1]; F127 1.83 mmol·L^−1
  C0free (free CBZ concentration in the donor solution, C0free=C0·ffree): 378 µM
[1]; F127 2.30 mmol·L^−1
  C0free (free CBZ concentration in the donor solution, C0free=C0·ffree): 312 µM
[1]; SBE-β-CD 6.89 mmol·L^−1
  C0free (free CBZ concentration in the donor solution, C0free=C0·ffree): 440 µM
[1]; SBE-β-CD 13.78 mmol·L^−1
  C0free (free CBZ concentration in the donor solution, C0free=C0·ffree): 514 µM
[1]; SBE-β-CD 20.67 mmol·L^−1
  C0free (free CBZ concentration in the donor solution, C0free=C0·ffree): 500 µM
[1]; [13]
  Papp at 5 h: 0.286 ×10⁻⁶ cm/s
[1]; [14]
  Papp at 5 h: 0.253 ×10⁻⁶ cm/s
[1]; [15]
  Papp at 5 h: 0.214 ×10⁻⁶ cm/s
[1]; [16]
  Papp at 5 h: 0.127 ×10⁻⁶ cm/s
[1]; [17]
  Papp at 5 h: 0.0796 ×10⁻⁶ cm/s
[1]; [18]
  Papp at 5 h: 0.0565 ×10⁻⁶ cm/s
[1]; [19]
  Papp at 5 h: 0.567 ×10⁻⁶ cm/s
[1]; [20]
  Papp at 5 h: 0.567 ×10⁻⁶ cm/s
[2]
  logP: 3.47
[3]
  solubility thermodynamic: 830 µM (≈ 196 µg/mL)
[4]; [21]
  Partition coefficient KSBE-β-CD/buf: 205.11 (±0.51)
[4]; [22]
  Partition coefficient KSBE-β-CD/buf: 297.67 (±0.75)
[5]
  CBZ/F127 micellar association constant (Ka): 2374.2 (±118.7) M^−1
[5]; [23]
  CBZ/F127 micellar association constant (Ka): 65.5 (±3.27) L∙kg^−1
[6]
  P (partition coefficient water/1-octanol): 380.19
[7]; F127 1.33 mmol·L^−1
  C0free (free CBZ concentration in the donor solution, C0free=C0·ffree): 473 µM
[7]; F127 1.83 mmol·L^−1
  C0free (free CBZ concentration in the donor solution, C0free=C0·ffree): 377 µM
[7]; F127 2.30 mmol·L^−1
  C0free (free CBZ concentration in the donor solution, C0free=C0·ffree): 473 µM
[7]; SBE-β-CD 6.89 mmol·L^−1
  C0free (free CBZ concentration in the donor solution, C0free=C0·ffree): 446 µM
[7]; SBE-β-CD 13.78 mmol·L^−1
  C0free (free CBZ concentration in the donor solution, C0free=C0·ffree): 388 µM
[7]; SBE-β-CD 20.67 mmol·L^−1
  C0free (free CBZ concentration in the donor solution, C0free=C0·ffree): 559 µM
[7]; [13]
  Papp at 5 h: 32.2 ×10⁻⁶ cm/s
[7]; [14]
  Papp at 5 h: 26.6 ×10⁻⁶ cm/s
[7]; [15]
  Papp at 5 h: 20.3 ×10⁻⁶ cm/s
[7]; [16]
  Papp at 5 h: 20.5 ×10⁻⁶ cm/s
[7]; [17]
  Papp at 5 h: 13.4 ×10⁻⁶ cm/s
[7]; [18]
  Papp at 5 h: 12.4 ×10⁻⁶ cm/s
[7]; [19]
  Papp at 5 h: 55.5 ×10⁻⁶ cm/s
[7]; [20]
  Papp at 5 h: 55.5 ×10⁻⁶ cm/s
[8]; unbuffered double distilled water, 30 °C, ref 48 Jain et al.
  Stability constant of CBZ with SBE-β-CD: 498.04 M⁻¹
[8]; undefined pH and temperature, ref 49 Smith et al.
  Stability constant of CBZ with SBE-β-CD: 1035 M⁻¹
[9]
  Apparent stability constant of CBZ/SBE-β-CD complex (Kc): 395.9 (±15.8) M^−1 and 395.9 M^−1
[9]; [23]
  Apparent stability constant of CBZ/SBE-β-CD complex (Kc): 247.5 (±5.23) L∙kg^−1
[10]
  Solubility of CBZ: 1430 µM
[11]; [21]
  Partition coefficient KF127/buf: 58.54 (±0.86)
[11]; [22]
  Partition coefficient KF127/buf: 737.63 (±10.90)

## sulfobutylether-β-cyclodextrin [SBE-β-CD]
[12]; SBE-β-CD 6.89 mmol·L-1 donor solution
  Viscosity: 0.72 mPa·s
[12]; SBE-β-CD 13.78 mmol·L-1 donor solution
  Viscosity: 0.75 mPa·s
[12]; SBE-β-CD 20.67 mmol·L-1 donor solution
  Viscosity: 0.8 mPa·s
